By IC50 is commonly meant the concentration that inhibits the measured activity by half. The low end stands for greater potency, the high end for weaker potency.

Here are results for 16 molecules from patent US12187758B2 (ROME Therapeutics, Inc., priority 2022, dated 2025).

Experiment [1] deals with SDH-A (succinate dehydrogenase-A). The experiment in a line: Mitochondria toxicity assay with PC3 cells, in-cell ELISA SDH-A. The experiment is classed as cell-based. The note with it: 5 days treatment. The essentials: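 This in-cell ELISA was run on fixed, permeabilized PC3 cells after 5-day exposure to titrated compound, with cytotoxicity measured on a duplicate plate. Results are reported as categories A (<1.0 μM) to E (>100.0 μM).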
(In an ELISA, binding on a coated surface is turned into a signal by an enzyme label.)

Experiment [2] relates to THP1-Dual KO-TREX1 cells. As to the kind of experiment: THP1 TREX1 KO inhibition assay (type 1 interferon response). The experiment is classed as cell-based. As to conditions: Homo sapiens, 144 h, type 1 interferon (QUANTI-LUC), 1 μM 5-aza-2′-deoxycytidine, six days. The method, boiled down:
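THP1-Dual KO-TREX1 cells were treated with a dose titration of compound, alone or with 1 μM 5-aza-2′-deoxycytidine, for six days at 37 °C. Type 1 interferon was read as secreted luciferase (QUANTI-LUC) in the supernatant, and viability by CellTiter-Glo luminescence.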

With `Nc1nc(=O)n([C@@H]2O[C@@](CO)(CF)[C@@H](O)[C@@H]2O)cc1F` [Compound 72, 4-amino-5-fluoro-1-((2R,3S,4S,5R)-5-(fluoromethyl)-3,4-dihydroxy-5-(hydroxymethyl)tetrahydrofuran-2-yl)pyrimidin-2(1H)-one], the results for the IC50 in experiment [1] and in experiment [2] were over 100 µM and over 1 µM, respectively.

Consider `Nc1ccn([C@H]2C[C@H](O)[C@](CO)(C3CC3)O2)c(=O)n1` [Compound 16, 4-amino-1-((2R,4S,5R)-5-cyclopropyl-4-hydroxy-5-(hydroxymethyl)tetrahydrofuran-2-yl)pyrimidin-2(1H)-one], for which the concentration for half-maximal inhibition (IC50) is over 100 µM in experiment [1] and over 1 µM in experiment [2].

For the molecule `Nc1ccn([C@H]2C[C@H](O)[C@](CO)(CCl)O2)c(=O)n1` [Compound 2, 4-amino-1-((2R,4S,5R)-5-(chloromethyl)-4-hydroxy-5-(hydroxymethyl)tetrahydrofuran-2-yl)pyrimidin-2(1H)-one], the IC50 is over 100 µM in experiment [1] and 0.05 to 0.1 µM in experiment [2].

Regarding `Nc1nc(=O)n([C@@H]2O[C@@](CO)(CCl)[C@@H](O)[C@@H]2F)cc1F` [Compound 67, 4-amino-1-[(2R,3S,4R,5R)-5-(chloromethyl)-3-fluoro-4-hydroxy-5-(hydroxymethyl)oxolan-2-yl]-5-fluoropyrimidin-2-one], the IC50 in experiment [1] is over 100 µM; in experiment [2] it was 0.25 to 1 µM.

Regarding `Nc1nc(=O)n([C@@H]2O[C@@](CO)(CF)[C@@H](O)[C@@H]2F)cc1F` [Compound 85, 4-amino-5-fluoro-1-[(2R,3S,4R,5R)-3-fluoro-5-(fluoromethyl)-4-hydroxy-5-(hydroxymethyl)oxolan-2-yl] pyrimidin-2-one], the IC50 in experiment [1] is over 100 µM; in experiment [2] it was 0.25 to 1 µM.

Take `[N-]=[N+]=N[C@]1(CO)O[C@@H](n2cc(F)c(N)nc2=O)C[C@@H]1O` [Compound 61, 4-amino-1-((2R,4S,5R)-5-azido-4-hydroxy-5-(hydroxymethyl)tetrahydrofuran-2-yl)-5-fluoropyrimidin-2(1H)-one]: the IC50 in experiment [1] was over 100 µM; in experiment [2], over 1 µM.

As to `C[C@@H]1[C@H](n2ccc(N)nc2=O)O[C@@](CO)(CCl)[C@H]1O` [Compound 12, 4-amino-1-((2R,3S,4S,5R)-5-(chloromethyl)-4-hydroxy-5-(hydroxymethyl)-3-methyltetrahydrofuran-2-yl)pyrimidin-2(1H)-one], the 50% inhibitory concentration (IC50) is over 100 µM in experiment [1] and over 1 µM in experiment [2].

In the case of `C#C[C@]1(CO)O[C@@H](n2cnc3c(N)nc(Cl)nc32)C[C@@H]1O` [Compound 25], the figures for the IC50 in experiment [1] and in experiment [2] were over 100 µM and over 1 µM, respectively.

Take `Nc1nc(=O)n([C@H]2C[C@H](O)[C@](CO)(CCl)O2)cc1F` [Compound 14, 4-amino-1-((2R,4S,5R)-5-(chloromethyl)-4-hydroxy-5-(hydroxymethyl)tetrahydrofuran-2-yl)-5-fluoropyrimidin-2(1H)-one]: the IC50 is over 100 µM in experiment [1] and 0.1 to 0.25 µM in experiment [2].

As to `CC[C@]1(CO)O[C@@H](n2ccc(N)nc2=O)C[C@@H]1O` [Compound 44, 4-amino-1-((2R,4S,5R)-5-ethyl-4-hydroxy-5-(hydroxymethyl)tetrahydrofuran-2-yl)pyrimidin-2(1H)-one], the IC50 in experiment [1] was over 100 µM; in experiment [2] it was over 1 µM.

`CC[C@]1(CO)O[C@@H](n2ccc(N)nc2=O)[C@@H](F)[C@@H]1O` [Compound 51, 4-amino-1-((2R,3S,4R,5R)-5-ethyl-3-fluoro-4-hydroxy-5-(hydroxymethyl)tetrahydrofuran-2-yl)pyrimidin-2(1H)-one]: the values for the IC50 in experiment [1] and in experiment [2] were over 100 µM and over 1 µM, respectively.

Take `Nc1nc(=O)n([C@H]2C[C@H](O)[C@](CO)(CBr)O2)cc1F` [Compound 88, 4-amino-1-((2R,4S,5R)-5-(bromomethyl)-4-hydroxy-5-(hydroxymethyl)tetrahydrofuran-2-yl)-5-fluoropyrimidin-2(1H)-one]: the IC50 in experiment [1] is over 100 µM; in experiment [2], 0.25 to 1 µM.

For the molecule `C[C@@H]1[C@H](n2ccc(N)nc2=O)O[C@](C)(CO)[C@H]1O` [Compound 19, 4-amino-1-((2R,3S,4S,5R)-4-hydroxy-5-(hydroxymethyl)-3,5-dimethyltetrahydrofuran-2-yl)pyrimidin-2(1H)-one], the 50% inhibitory concentration (IC50) in experiment [1] is 10 to 50 µM; in experiment [2], over 1 µM.

With `Nc1ncnc2c1ncn2[C@H]1C[C@H](O)[C@](CO)(CCl)O1` [Compound 15, (2R,3S,5R)-5-(6-amino-9H-purin-9-yl)-2-(chloromethyl)-2-(hydroxymethyl)tetrahydrofuran-3-ol], the half-inhibitory concentration (IC50) is over 100 µM in experiment [1] and over 1 µM in experiment [2].

As to `Nc1ccn([C@@H]2O[C@@](CO)(CCl)[C@@H](O)[C@@H]2F)c(=O)n1` [Compound 40, 4-amino-1-((2R,3S,4R,5R)-5-(chloromethyl)-3-fluoro-4-hydroxy-5-(hydroxymethyl)tetrahydrofuran-2-yl)pyrimidin-2(1H)-one], the IC50 in experiment [1] was over 100 µM; in experiment [2], over 1 µM.

For `CO[C@@H]1[C@H](n2ccc(N)nc2=O)O[C@@](CO)(CCl)[C@H]1O` [Compound 13, 4-amino-1-((2R,3S,4S,5R)-5-(chloromethyl)-4-hydroxy-5-(hydroxymethyl)-3-methoxytetrahydrofuran-2-yl)pyrimidin-2(1H)-one], the values for the IC50 in experiment [1] and in experiment [2] were over 100 µM and over 1 µM, respectively.
